Measurements: PMC9967645, “OAT3 Participates in Drug–Drug Interaction between Bentysrepinine and Entecavir through Interactions with M8—A Metabolite of Bentysrepinine—In Rats and Humans In Vitro” (Molecules, 2023)
Several values for one entry are separate records, joined by “and”; a condition that tells them apart may be missing. Identical values can stand only once. Like-named read-outs stand apart in the source and are kept apart here.

Tests used:
[1] = Pharmacokinetic study in rats, intravenous Y101 with or without PRO; assay type: in vivo, Sprague–Dawley (SD) rats; conditions: for Vd / half-life / clearance / AUC(0-inf) / AUC(0-t) / C0 / Tmax / Cmax: male, Sprague-Dawley, rat, plasma, iv, 25 mg/kg; for Vd / half-life / AUC(0-inf) / AUC(0-t) / C0 / Tmax / Cmax: n = 3; for clearance: n = 3, read-out: CLp (plasma clearance) (converted)
Procedure: The effect of PRO on the pharmacokinetics of Y101 was studied in rats. Male rats surgically prepared with indwelling jugular cannula were randomly divided into two groups (n = 3): (1) Y101 alone (25 mg/kg) as a control and (2) Y101 + PRO (25 mg/kg for Y101 and 100 mg/kg for PRO) as an experimental group. The intravenous dose of Y101 was prepared as previously described. Both Y101 and PRO were injected by caudal vein to rats at volume of 5 mL/kg.
(§1) Following administration, serial blood samples were collected through jugular vein pre-dose (0 h) and post-dose at 0.033, 0.083, 0.25, 0.5, 1, 1.5, 2, 3, 4, 6, 9, 12, 24 and 30 h in heparinized Eppendorf tubes. The resulting samples were centrifuged at 13,800× g at 4 °C for 5 min to obtain plasma. All plasma samples were stored at −70 °C until analysis.
(§2) Biological samples were prepared as previously described.
(§3) Non-compartmental analysis with Phenix WinNonlin (version 8.1; Pharsight, Certara Corp, Princeton, NJ) was used to calculate the main pharmacokinetic parameters of ETV, Y101, M8 and M9 for individual rats. The observed values were reported for maximum concentration (Cmax) and time to reach maximum concentration (Tmax), while the area under the plasma concentration–time curve (AUC) was calculated via the default trapezoidal-up, log-trapezoidal-down approach.

[2] = Pharmacokinetic DDI study in rats, oral Y101 and/or ETV; assay type: in vivo, Sprague–Dawley (SD) rats; conditions: Sprague-Dawley, rat, plasma, n = 4
Procedure: Additionally, DDI between Y101 and ETV was investigated by monitoring time-course plasma Y101 in rats with surgery as described above. Animals were randomly placed into three groups (n = 4): (1) Y101 alone (25 mg/kg for intravenous treatment and 60 mg/kg for oral administration); (2) ETV (0.06 mg/kg); and (3) Y101 (25 mg/kg for intravenous treatment and 60 mg/kg for oral administration) + ETV (0.06 mg/kg). ETV was dissolved in saline at concentration of 12 µg/mL. Rats received an oral or intravenous dose of Y101 and/or ETV at volume of 5 mL/kg. The doses used in in vivo pharmacokinetic studies were selected in accordance with therapeutic doses of Y101 and ETV commonly used clinically and in previous studies.
as §1, §2, §3

[3] = Renal excretion study in rats (cumulative urinary excretion, renal clearance); assay type: in vivo, Sprague–Dawley (SD) rats; conditions: for CL renal: Sprague-Dawley, rat, urine, iv, read-out: CLR (renal clearance) (converted)
Procedure: To investigate the effects of PRO on the renal excretion of Y101 and its metabolites, rats received an intravenous dose of Y101 (25 mg/kg) or Y101 + PRO (25 mg/kg for Y101 and 100 mg/kg for PRO) via the caudal vein. In order to verify the DDI between Y101 and ETV in renal excretion, rats received an intravenous dose of Y101 (25 mg/kg) and/or ETV (0.06 mg/kg) by caudal vein.
[…] Subsequently, urine samples were stored at −70 °C until analysis. The cumulative urinary excretion and renal clearance (CLR) were calculated as previously described.
as §2

[4] = system: rat kidney slices; experiment: In vitro uptake assay in kidney slices; assay type: in vitro ADME; conditions: for time and temperature dependence of uptake in kidney slices: 37 °C vs 4 °C, M9 1.0 µM, 5 to 30 min
Procedure: The renal cortex was cut into 300 µm slices with a ZQP-86 tissue slicer (Shanghai Zhisun Equipment Co., Ltd., Shanghai, China; surface area 0.15 cm^2). […] Next, the kidney slices were prepared as previously described. Two slices per well were placed into 37 °C buffer filled with oxygen for pre-incubation for 3 min and then gently moved into a 24-well cell culture plate containing 1 mL oxygenated buffer at 4 °C or 37 °C. The uptakes of ETV (10 µM), Y101 (2.0 µM), M8 (5.0 µM) and M9 (1.0 µM) were measured at 5, 10, 15 and 30 min after the treatment, respectively. […] Following incubation at the designated time, kidney slices were collected, rinsed with ice-cold buffer three times, and dried on filter paper. After weighing and homogenization (IKA-T 10 homogenizer; IKA, Staufen, Germany), the concentrations of Y101, M8, M9 and ETV of kidney slice homogenates were determined as in the description below.
Biological samples were prepared as previously described. Aliquots (50 µL) of urine, plasma, kidney homogenates, or cell lysates were individually mixed with 150 µL methanol and 50 µL working solution of internal standard (acetaminophen or bestatin), followed by vortexing for 1 min and centrifuging at 13,800 g for 10 min. […] The resulting supernatant (1 µL) was subjected to LC-MS/MS for the assessment of Y101, M8, M9 and ETV, respectively. […] The concentrations of ETV, Y101, M8 and M9 were determined by an AB QTRAP 5500 LC–MS/MS System (Foster City, CA, USA) as previously described. Chromatographic separation was achieved on an Infinitylab Poroshell 120 EC-C18 (50 mm × 2.1 mm, 2.7 µm, Agilent Technology Inc., CA, USA) at 40 °C. The mobile phase consisted of formic acid-acetonitrile (0.05:100, v/v) and a mixture of 1 mmol-ammonium acetate-acetonitrile-formic acid (95:5:0.05, v/v/v) at a flow rate of 0.3 mL/min. […] Analyst1.5.2 software was used for data processing and analysis.

[5] = i.v. Y101 25 mg/kg + PRO 100 mg/kg
[6] = oral Y101 60 mg/kg + ETV 0.06 mg/kg
[7] = 25 mg/kg, i.v. Y101 25 mg/kg + PRO 100 mg/kg
[8] = 25 mg/kg, i.v. Y101 25 mg/kg alone (Table 1, control of PRO study)
[9] = 25 mg/kg, i.v. Y101 25 mg/kg alone (Table 2, control of ETV study)
[10] = i.v. Y101 25 mg/kg + ETV 0.06 mg/kg
[11] = i.v. Y101 25 mg/kg + ETV 0.06 mg/kg, at 30 h post-dose
[12] = i.v. Y101 25 mg/kg + PRO 100 mg/kg, 0 to 48 h
[13] = ETV 10 µM, Y101 2.0 µM, M8 5.0 µM
[14] = i.v. Y101 25 mg/kg + PRO 100 mg/kg vs Y101 alone

| AUC(0-inf) [2, 6] [ng·h/mL] | AUC(0-t) [2, 6] [ng·h/mL] | Cmax [2, 6] [ng/mL] | Tmax [2, 6] [h] | half-life [2, 6] [h] | CL renal [3, 10] [mL/min/kg] | SMILES | half-life [1, 5] [h] | AUC(0-inf) [1, 5] [ng·h/mL] | AUC(0-t) [1, 5] [ng·h/mL] | AUC(0-inf) ([1]; i.v. Y101 25 mg/kg alone) [ng·h/mL] | AUC(0-t) ([1]; i.v. Y101 25 mg/kg alone) [ng·h/mL] | half-life ([1]; i.v. Y101 25 mg/kg alone) [h] | AUC(0-inf) ([2]; oral Y101 60 mg/kg alone) [ng·h/mL] | AUC(0-t) ([2]; oral Y101 60 mg/kg alone) [ng·h/mL] | Cmax ([2]; oral Y101 60 mg/kg alone) [ng/mL] | Tmax ([2]; oral Y101 60 mg/kg alone) [h] | half-life ([2]; oral Y101 60 mg/kg alone) [h] | CL renal [3, 7] [mL/min/kg] | CL renal [3, 8] [mL/min/kg] | CL renal [3, 9] [mL/min/kg] | further results |
| --- | --- | --- | --- | --- | --- | --- | --- | --- | --- | --- | --- | --- | --- | --- | --- | --- | --- | --- | --- | --- | --- |
| 7.41 | 6.76 | 2.94 | 0.875 | 1.45 | 33.3 | C=C1[C@H](CO)[C@@H](O)C[C@@H]1n1cnc2c(=O)[nH]c(N)nc21 [ETV, entecavir] | – | – | – | – | – | – | – | – | – | – | – | – | – | – | AUC(0-inf) ([2]; oral ETV 0.06 mg/kg alone): 8.49 ng·h/mL; AUC(0-t) ([2]; oral ETV 0.06 mg/kg alone): 8.15 ng·h/mL; Cmax ([2]; oral ETV 0.06 mg/kg alone): 5.54 ng/mL; Tmax ([2]; oral ETV 0.06 mg/kg alone): 0.5 h; half-life ([2]; oral ETV 0.06 mg/kg alone): 1.1 h; CL renal ([3]; 0.06 mg/kg, i.v. ETV 0.06 mg/kg alone): 36.2 mL/min/kg; cumulative excretion in urine ([3]; i.v. ETV 0.06 mg/kg alone, at 30 h post-dose): 33.4 ± 1.55%; inhibition of the uptake of M8 in kidney slices ([4]; M8 5.0 µM, PCG 0.2 and 0.5 mM, PRO 0.1 mM, PAH 0.2 and 0.5 mM, TEA 0.2 mM, 10 min, ETV 10 µM): significantly inhibited the uptake of M8; inhibition of the uptake of Y101 in kidney slices ([4]; Y101 2.0 µM, PCG 0.2 and 0.5 mM, PRO 0.1 mM, PAH 0.2 and 0.5 mM, TEA 0.2 mM, 10 min, ETV 10 µM): did not show any inhibitory effects |
| 10400 | 10300 | 1980 | 1.5 | 3.64 | 106 | CN(C)CCOc1ccc(CC(NC(=O)c2ccccc2)C(=O)O)cc1 (centres unmarked) [M8] | 3.45 | 21900 | 21900 | 8360 | 8300 | 4.07 | 10200 | 10100 | 2030 | 2.25 | 3.44 | 82.7 | 100 | 115 | elevation in AUC value on co-administration of PRO [1, 14]: 163%; increase in Cmax value on co-administration of PRO [1, 14]: 2.6 fold; Tmax [1, 5]: 0.5 h; Cmax [1, 5]: 10100 ng/mL; Cmax ([1]; i.v. Y101 25 mg/kg alone): 3890 ng/mL; Tmax ([1]; i.v. Y101 25 mg/kg alone): 0.667 h; cumulative excretion in the urine [3, 11]: 59.7 ± 5.78 % of the dose; cumulative urinary excretion [3, 12]: 56.3 ± 3.00%; cumulative urinary excretion ([3]; i.v. Y101 25 mg/kg alone, at 48 h post-dose): 68.1 ± 6.97 % of the dose and 68.1 % of the dose; time and temperature dependence of uptake in kidney slices ([4]; Y101 2.0 µM, M8 5.0 µM): temperature-dependent; effect on the uptake of ETV in kidney slices [4, 13]: not affected |

| SMILES | AUC(0-inf) [2, 6] [ng·h/mL] | AUC(0-t) [2, 6] [ng·h/mL] | Cmax [2, 6] [ng/mL] | Tmax [2, 6] [h] | half-life [2, 6] [h] | CL renal [3, 10] [mL/min/kg] | half-life [1, 5] [h] | AUC(0-inf) [1, 5] [ng·h/mL] | AUC(0-t) [1, 5] [ng·h/mL] | AUC(0-inf) ([1]; i.v. Y101 25 mg/kg alone) [ng·h/mL] | AUC(0-t) ([1]; i.v. Y101 25 mg/kg alone) [ng·h/mL] | half-life ([1]; i.v. Y101 25 mg/kg alone) [h] | AUC(0-inf) ([2]; oral Y101 60 mg/kg alone) [ng·h/mL] | AUC(0-t) ([2]; oral Y101 60 mg/kg alone) [ng·h/mL] | Cmax ([2]; oral Y101 60 mg/kg alone) [ng/mL] | Tmax ([2]; oral Y101 60 mg/kg alone) [h] | half-life ([2]; oral Y101 60 mg/kg alone) [h] | CL renal [3, 7] [mL/min/kg] | CL renal [3, 8] [mL/min/kg] | CL renal [3, 9] [mL/min/kg] | further results |
| --- | --- | --- | --- | --- | --- | --- | --- | --- | --- | --- | --- | --- | --- | --- | --- | --- | --- | --- | --- | --- | --- |
| CN(C)CCOc1ccc(C[C@H](NC(=O)c2ccccc2)C(=O)N[C@H](CO)Cc2ccccc2)cc1.Cl [Y101, N-[N-benzoyl-O-(2-dimethylaminoethyl)-l-tyrosyl]-l-phenylalaninol hydrochloride] | 1680 | 1620 | 843 | 0.313 | 1.11 | 7.93 | 0.706 | 2030 | 2020 | 2860 | 2840 | 0.798 | 1620 | 1570 | 668 | 0.25 | 0.998 | 5.28 | 6.1 | 7.18 | Vd [1, 5]: 12.5 L/kg; clearance [1, 5]: 207 mL/min/kg; C0 [1, 5]: 15800 ng/mL; C0 ([1]; i.v. Y101 25 mg/kg alone): 16000 ng/mL; Vd ([1]; i.v. Y101 25 mg/kg alone): 10.2 L/kg; clearance ([1]; i.v. Y101 25 mg/kg alone): 149 mL/min/kg; cumulative excretion in the urine [3, 11]: 4.48 ± 0.742 % of the dose; cumulative urinary excretion [3, 12]: 3.59 ± 0.526%; cumulative urinary excretion ([3]; i.v. Y101 25 mg/kg alone, at 48 h post-dose, 25 mg/kg): 4.16 ± 0.843 % of the dose and 4.16 % of the dose; time and temperature dependence of uptake in kidney slices ([4]; Y101 2.0 µM, M8 5.0 µM): time- and temperature-dependent; effect on the uptake of ETV in kidney slices [4, 13]: not affected |
